Reference: US6355640B1, “Pyrazolopyridine adenosine antagonists” (Fujisawa Pharmaceutical Co., Ltd., priority 1993, dated 2002)

SMILES	melting point
CN1CCN(C(=O)CC2=C(n3nc(-c4c(-c5ccccc5)nn5ccccc45)ccc3=O)CCCC2)CC1.Cl (hydrate or solvate)	188 to 191 °C
O=c1ccc(-c2c(-c3ccccc3)nn3ccccc23)nn1[C@@H]1CCCC[C@@H]1O (relative stereo) [Example 4, cis-3-[2-(2-hydroxycyclohexyl)-3-oxo-2,3-dihydropyridazin-6-yl]-2-phenylpyrazolo[1,5-a]pyridine]	195 to 197 °C
O=c1ccc(-c2c(-c3ccccc3)nn3ccccc23)nn1[C@@H]1CCCC[C@H]1O (relative stereo) [Example 5, trans-3-[2-(2-hydroxycyclohexyl)-3-oxo-2,3-dihydropyridazin-6-yl]-2-phenylpyrazolo[1,5-a]-pyridine]	229 to 230 °C
COC(=O)[C@H]1CC[C@@H](n2nc(-c3c(-c4ccccc4)nn4ccccc34)ccc2=O)[C@H](O)C1 (relative stereo) [Example 8, 3-[2-{(1R*,2R*,4S*)-2-Hydroxy-4-methoxycarbonyl-cyclohexyl}-3-oxo-2,3-dihydropyridazin-6-yl]-2-phenylpyrazolo[1,5-a]pyridine]	169 to 172 °C
COC(=O)[C@@H]1CC[C@H](n2nc(-c3c(-c4ccccc4)nn4ccccc34)ccc2=O)C(=O)C1 (relative stereo) [Example 10, cis-3-[2-(4-Methoxycarbonyl-2-oxocyclohexyl)-3-oxo-2,3-dihydropyridazin-6-yl]-2-phenylpyrazolo[1,5-a]pyridine]	164 to 165 °C
O=C(O)[C@@H]1CC[C@H](n2nc(-c3c(-c4ccccc4)nn4ccccc34)ccc2=O)C(=O)C1 (relative stereo) [Example 13, cis-3-[2-(4-carboxy-2-oxocyclohexyl)-3-oxo-2,3-dihydropyridazin-6-yl]-2-phenylpyrazolo[1,5-a]pyridine]	186 to 188 °C
CCOC(=O)[C@H]1CCC(=O)[C@@H](n2nc(-c3c(-c4ccccc4)nn4ccccc34)ccc2=O)C1 (relative stereo) [Example 16, cis-3-[2-(5-Ethoxycarbonyl-2-oxocyclohexyl)-3-oxo-2,3-dihydropyridazin-6-yl]-2-phenylpyrazolo[1,5-a]pyridine]	160 to 162 °C

Next, values leading:

melting point	SMILES
171 to 172 °C	O=C(O)CC1=C(n2nc(-c3c(-c4ccccc4)nn4ccccc34)ccc2=O)CCCCC1 (hydrate or solvate) [Example 19, 3-[2-(2-carboxymethyl-1-cycloheptenyl)-3-oxo-2,3-dihydropyridazin-6-yl]-2-phenylpyrazolo[1,5-a]-pyridine]
101 to 105 °C	CNC1CCN(C(=O)CC2=C(n3nc(-c4c(-c5ccccc5)nn5ccccc45)ccc3=O)CCCC2)CC1 (hydrate or solvate) [Example 86, 3-[2-{2-(4-Methylaminopiperidinocarbonyl)methyl-1-cyclohexenyl}-3-oxo-2,3-dihydropyridazin-6-yl]-2-phenylpyrazolo[1,5-a]pyridine]
238 to 240 °C	O=c1ccc(-c2c(-c3ccccc3)nn3ccccc23)nn1C1CCCCC1=NO (stereo not drawn) (hydrate or solvate) [Example 89, 3-[2-(2-Hydroxyiminocyclohexyl)-3-oxo-2,3-dihydropyridazin-6-yl]-2-phenylpyrazolo[1,5-a]pyridine]
155 to 165 °C	O=C(O)[C@H]1CCC(=O)[C@@H](n2nc(-c3c(-c4ccccc4)nn4ccccc34)ccc2=O)C1 (relative stereo) (hydrate or solvate) [Example 17, cis-3-[2-(5-Carboxy-2-oxocyclohexyl)-3-oxo-2,3-dihydropyridazin-6-yl]-2-phenylpyrazolo[1,5-a]pyridine]
146 to 150 °C	COc1ccc2c(c1)CC[C@@H](O)[C@@H]2n1nc(-c2c(-c3ccccc3)nn3ccccc23)ccc1=O (relative stereo) [Example 30, trans-3-[2-(6-Hydroxy-2-methoxy-5,6,7,8-tetrahydro-5-naphthyl)-3-oxo-2,3-dihydropyridazin-6-yl]-2-phenylpyrazolo[1,5-a]pyridine]
